ChEMBL document CHEMBL4800723, “Data for DCP probe BI-1942” (2021)

Legend:
[1] = biological target: Beta-3 adrenergic receptor (Homo sapiens) (UniProt P13945); settings: Compound concentration 10.0 uM
[2] = biological target: Cholecystokinin receptor type A (Homo sapiens) (UniProt P32238); experiment: CCKA/H Eurofins SafetyScreen44 (BI); settings: Compound concentration 10.0 uM
[3] = biological target: 5-hydroxytryptamine receptor 1D (Homo sapiens, UniProt P28221); settings: Compound concentration 10.0 uM
[4] = biological target: Muscarinic acetylcholine receptor M2 (Homo sapiens) (UniProt P08172); experiment: M2/H Eurofins SafetyScreen44 (BI); settings: filed as antagonist, Compound concentration 10.0 uM
Trypsin (Homo sapiens) = Trypsin (Homo sapiens) (UniProt P07477+P07478+P35030); experiment: TRYPSIN_CE Eurofins SafetyScreen44 (BI); assay type: protein assay; settings: Compound concentration 10.0 uM
[5] = biological target: Beta-2 adrenergic receptor (Homo sapiens) (UniProt P07550); settings: Compound concentration 10.0 uM
Chymase (Homo sapiens) = Chymase (Homo sapiens) (UniProt P23946); settings: Compound concentration 10.0 uM
[6] = biological target: Stromelysin-1 (Homo sapiens) (UniProt P08254); experiment: MMP-3 (H) Eurofins SafetyScreen44 (BI); settings: Compound concentration 10.0 uM
[7] = biological target: Alpha-2B adrenergic receptor (Homo sapiens) (UniProt P18089); settings: Compound concentration 10.0 uM
[8] = biological target: Vasopressin V1a receptor (Homo sapiens) (UniProt P37288); experiment: V1A/HUM Eurofins SafetyScreen44 (BI); settings: Compound concentration 10.0 uM
[9] = biological target: Beta-1 adrenergic receptor (Homo sapiens) (UniProt P08588); experiment: BETA1/HUM Eurofins SafetyScreen44 (BI); settings: Compound concentration 10.0 uM
[10] = biological target: Sodium-dependent serotonin transporter (Homo sapiens) (UniProt P31645); settings: Compound concentration 10.0 uM
[11] = biological target: Endothelin-1 receptor (Homo sapiens) (UniProt P25101); experiment: ETA/H Eurofins SafetyScreen44 (BI); settings: Compound concentration 10.0 uM
[12] = biological target: Beta-secretase 1 (Homo sapiens) (UniProt P56817); experiment: BACE-1 Eurofins SafetyScreen44 (BI); settings: Compound concentration 10.0 uM
[13] = biological target: Delta-type opioid receptor (Homo sapiens) (UniProt P41143); settings: Compound concentration 10.0 uM
[14] = biological target: T1, Kappa-type opioid receptor (Homo sapiens, UniProt P41145); experiment: GPCRScan assay: inhibition of KOR; design: radioligand conc. used [nm] 0.6 – 1.2, parental cells stable HEK
[15] = biological target: Angiotensin-converting enzyme (Homo sapiens) (UniProt P12821); experiment: ACE(HU_AMTCH400) Eurofins SafetyScreen44 (BI); settings: Compound concentration 10.0 uM
[16] = biological target: Muscarinic acetylcholine receptor M5 (Homo sapiens) (UniProt P08912); settings: Compound concentration 10.0 uM
[17] = biological target: Cannabinoid receptor 2 (Homo sapiens) (UniProt P34972); experiment: CB2/PERIPH/H Eurofins SafetyScreen44 (BI); settings: Compound concentration 10.0 uM
[18] = biological target: T1, Kappa-type opioid receptor; experiment: KAPPA(KOP)_HU Eurofins SafetyScreen44 (BI); settings: Compound concentration 10.0 uM
[19] = biological target: Neutrophil elastase (Homo sapiens) (UniProt P08246); experiment: ELASTASE(H) Eurofins SafetyScreen44 (BI); settings: Compound concentration 10.0 uM
[20] = biological target: Histamine H1 receptor (Homo sapiens) (UniProt P35367); settings: Compound concentration 10.0 uM
[21] = biological target: 5-hydroxytryptamine receptor 5A (Homo sapiens) (UniProt P47898); settings: Compound concentration 10.0 uM
[22] = biological target: Sodium-dependent noradrenaline transporter (Homo sapiens) (UniProt P23975); experiment: NEUP/H Eurofins SafetyScreen44 (BI); settings: Compound concentration 10.0 uM
[23] = biological target: Cathepsin B (Homo sapiens) (UniProt P07858); experiment: CATHEPSB(H) Eurofins SafetyScreen44 (BI); settings: Compound concentration 10.0 uM
[24] = biological target: Muscarinic acetylcholine receptor M3 (Homo sapiens) (UniProt P20309); settings: Compound concentration 10.0 uM
[25] = biological target: Alpha-1A adrenergic receptor (Homo sapiens) (UniProt P35348); settings: Compound concentration 10.0 uM
[26] = biological target: 5-hydroxytryptamine receptor 3A (Homo sapiens) (UniProt P46098); settings: Compound concentration 10.0 uM
[27] = biological target: Matrix metalloproteinase-9 (Homo sapiens) (UniProt P14780); experiment: MMP-9 (H) Eurofins SafetyScreen44 (BI); settings: Compound concentration 10.0 uM
[28] = biological target: Mu-type opioid receptor (Homo sapiens) (UniProt P35372); experiment: MU/H Eurofins SafetyScreen44 (BI); settings: Compound concentration 10.0 uM
[29] = biological target: Procathepsin L (Homo sapiens) (UniProt P07711); experiment: CATHEPSIN-L Eurofins SafetyScreen44 (BI); settings: Compound concentration 10.0 uM
[30] = biological target: Alpha-2A adrenergic receptor (Homo sapiens) (UniProt P08913); settings: Compound concentration 10.0 uM
[31] = biological target: 5-hydroxytryptamine receptor 1B (Homo sapiens) (UniProt P28222); experiment: 5HT1B(H) Eurofins SafetyScreen44 (BI); settings: filed as antagonist, Compound concentration 10.0 uM
Caspase-8 (Homo sapiens) = Caspase-8 (Homo sapiens) (UniProt Q14790); experiment: CASPASE8_CE Eurofins SafetyScreen44 (BI); settings: Compound concentration 10.0 uM
[32] = biological target: Proteinase-activated receptor 1 (Homo sapiens) (UniProt P25116); experiment: PAR1(H)AGON Eurofins SafetyScreen44 (BI); settings: filed as agonist, Compound concentration 10.0 uM
[33] = biological target: 5-hydroxytryptamine receptor 1B (Homo sapiens) (UniProt P28222); settings: Compound concentration 10.0 uM
[34] = biological target: Human immunodeficiency virus type 1 protease (Human immunodeficiency virus 1) (UniProt Q72874); experiment: HIV-1/H Eurofins SafetyScreen44 (BI); settings: Compound concentration 10.0 uM
[35] = biological target: Glutamate NMDA receptor (Rattus norvegicus) (UniProt P35439+Q00959+Q00960+Q00961+Q62645+Q8VHN2+Q9R1M7); experiment: NMDA/R Eurofins SafetyScreen44 (BI); assay type: protein-complex assay; settings: Compound concentration 10.0 uM
[36] = biological target: Neutrophil collagenase (Homo sapiens) (UniProt P22894); experiment: MMP-8(H) Eurofins SafetyScreen44 (BI); settings: Compound concentration 10.0 uM
[37] = biological target: Adenosine receptor A2a (Homo sapiens) (UniProt P29274); experiment: A2A/H Eurofins SafetyScreen44 (BI); settings: filed as antagonist, Compound concentration 10.0 uM
Tryptase (Homo sapiens) = Tryptase (Homo sapiens) (UniProt Q9BZJ3+Q15661+Q9NRR2); experiment: TRYPTASE_H Eurofins SafetyScreen44 (BI); assay type: protein assay; settings: Compound concentration 10.0 uM

T1 sequence (P41145 whole entry): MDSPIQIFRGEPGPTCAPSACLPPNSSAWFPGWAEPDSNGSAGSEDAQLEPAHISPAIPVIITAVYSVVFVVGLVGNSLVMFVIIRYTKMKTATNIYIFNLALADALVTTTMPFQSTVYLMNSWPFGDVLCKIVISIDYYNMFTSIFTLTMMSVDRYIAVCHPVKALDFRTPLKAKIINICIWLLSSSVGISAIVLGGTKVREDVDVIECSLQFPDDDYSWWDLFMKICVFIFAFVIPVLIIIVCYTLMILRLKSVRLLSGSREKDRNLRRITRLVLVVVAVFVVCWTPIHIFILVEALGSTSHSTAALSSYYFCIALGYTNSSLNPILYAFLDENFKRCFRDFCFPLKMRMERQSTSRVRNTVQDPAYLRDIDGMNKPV
5-hydroxytryptamine receptor 1B (Homo sapiens), sequence (P28222 whole entry): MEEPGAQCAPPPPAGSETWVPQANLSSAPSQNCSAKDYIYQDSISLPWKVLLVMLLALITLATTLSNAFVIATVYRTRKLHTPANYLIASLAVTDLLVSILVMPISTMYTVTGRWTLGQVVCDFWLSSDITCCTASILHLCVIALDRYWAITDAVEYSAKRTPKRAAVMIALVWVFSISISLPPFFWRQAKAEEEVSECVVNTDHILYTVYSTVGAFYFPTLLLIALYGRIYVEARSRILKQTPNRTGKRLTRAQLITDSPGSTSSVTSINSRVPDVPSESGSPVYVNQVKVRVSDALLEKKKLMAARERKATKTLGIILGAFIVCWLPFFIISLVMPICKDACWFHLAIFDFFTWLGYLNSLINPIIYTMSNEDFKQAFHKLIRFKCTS
Sodium-dependent noradrenaline transporter (Homo sapiens), sequence (P23975 whole entry): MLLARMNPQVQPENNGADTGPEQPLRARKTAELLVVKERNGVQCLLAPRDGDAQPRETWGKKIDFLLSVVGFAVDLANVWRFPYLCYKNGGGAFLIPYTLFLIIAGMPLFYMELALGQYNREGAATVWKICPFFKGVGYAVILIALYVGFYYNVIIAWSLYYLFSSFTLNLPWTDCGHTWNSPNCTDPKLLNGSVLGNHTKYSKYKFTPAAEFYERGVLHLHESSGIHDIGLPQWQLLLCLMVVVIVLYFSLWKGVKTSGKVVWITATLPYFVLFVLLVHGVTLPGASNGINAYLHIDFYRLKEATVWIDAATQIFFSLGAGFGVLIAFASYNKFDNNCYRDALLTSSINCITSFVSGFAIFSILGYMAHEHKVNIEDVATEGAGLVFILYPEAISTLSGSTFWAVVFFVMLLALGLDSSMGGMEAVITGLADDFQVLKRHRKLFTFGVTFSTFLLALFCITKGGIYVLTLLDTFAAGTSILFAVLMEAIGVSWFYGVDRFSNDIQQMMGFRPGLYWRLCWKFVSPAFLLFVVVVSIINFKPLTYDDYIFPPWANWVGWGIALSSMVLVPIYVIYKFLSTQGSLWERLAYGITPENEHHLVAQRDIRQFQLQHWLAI
Alpha-2B adrenergic receptor (Homo sapiens), sequence (P18089 whole entry): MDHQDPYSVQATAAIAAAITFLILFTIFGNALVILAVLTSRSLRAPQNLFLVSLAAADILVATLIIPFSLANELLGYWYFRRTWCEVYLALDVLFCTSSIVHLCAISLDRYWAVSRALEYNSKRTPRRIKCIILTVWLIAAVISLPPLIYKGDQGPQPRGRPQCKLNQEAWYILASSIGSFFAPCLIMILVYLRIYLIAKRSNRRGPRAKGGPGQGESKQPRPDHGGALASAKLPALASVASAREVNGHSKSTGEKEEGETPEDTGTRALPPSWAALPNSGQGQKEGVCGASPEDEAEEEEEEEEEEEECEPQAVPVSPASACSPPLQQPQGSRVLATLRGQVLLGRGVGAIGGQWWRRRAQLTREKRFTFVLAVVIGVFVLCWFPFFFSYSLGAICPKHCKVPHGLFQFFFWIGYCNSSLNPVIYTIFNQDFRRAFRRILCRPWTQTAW
Histamine H1 receptor (Homo sapiens), sequence (P35367 whole entry): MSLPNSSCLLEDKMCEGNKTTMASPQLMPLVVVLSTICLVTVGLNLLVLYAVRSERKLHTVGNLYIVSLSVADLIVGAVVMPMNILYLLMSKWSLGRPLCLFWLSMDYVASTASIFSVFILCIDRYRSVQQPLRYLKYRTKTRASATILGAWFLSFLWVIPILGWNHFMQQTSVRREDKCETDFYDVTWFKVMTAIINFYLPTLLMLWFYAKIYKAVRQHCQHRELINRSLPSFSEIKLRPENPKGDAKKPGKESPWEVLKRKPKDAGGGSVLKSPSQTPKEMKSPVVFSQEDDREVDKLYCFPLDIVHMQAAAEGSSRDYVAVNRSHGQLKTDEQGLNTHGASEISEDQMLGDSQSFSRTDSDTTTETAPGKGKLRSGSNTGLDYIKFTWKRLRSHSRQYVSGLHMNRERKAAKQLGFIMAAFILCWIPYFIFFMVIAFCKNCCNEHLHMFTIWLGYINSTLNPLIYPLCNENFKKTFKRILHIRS
Chymase (Homo sapiens), sequence (P23946 whole entry): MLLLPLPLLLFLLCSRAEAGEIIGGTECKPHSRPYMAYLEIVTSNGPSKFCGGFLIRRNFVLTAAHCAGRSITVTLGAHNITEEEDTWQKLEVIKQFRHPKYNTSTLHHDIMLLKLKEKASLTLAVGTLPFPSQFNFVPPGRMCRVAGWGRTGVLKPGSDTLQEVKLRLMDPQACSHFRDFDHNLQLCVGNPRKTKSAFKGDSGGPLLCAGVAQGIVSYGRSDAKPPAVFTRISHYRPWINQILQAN
Matrix metalloproteinase-9 (Homo sapiens), sequence (P14780 whole entry): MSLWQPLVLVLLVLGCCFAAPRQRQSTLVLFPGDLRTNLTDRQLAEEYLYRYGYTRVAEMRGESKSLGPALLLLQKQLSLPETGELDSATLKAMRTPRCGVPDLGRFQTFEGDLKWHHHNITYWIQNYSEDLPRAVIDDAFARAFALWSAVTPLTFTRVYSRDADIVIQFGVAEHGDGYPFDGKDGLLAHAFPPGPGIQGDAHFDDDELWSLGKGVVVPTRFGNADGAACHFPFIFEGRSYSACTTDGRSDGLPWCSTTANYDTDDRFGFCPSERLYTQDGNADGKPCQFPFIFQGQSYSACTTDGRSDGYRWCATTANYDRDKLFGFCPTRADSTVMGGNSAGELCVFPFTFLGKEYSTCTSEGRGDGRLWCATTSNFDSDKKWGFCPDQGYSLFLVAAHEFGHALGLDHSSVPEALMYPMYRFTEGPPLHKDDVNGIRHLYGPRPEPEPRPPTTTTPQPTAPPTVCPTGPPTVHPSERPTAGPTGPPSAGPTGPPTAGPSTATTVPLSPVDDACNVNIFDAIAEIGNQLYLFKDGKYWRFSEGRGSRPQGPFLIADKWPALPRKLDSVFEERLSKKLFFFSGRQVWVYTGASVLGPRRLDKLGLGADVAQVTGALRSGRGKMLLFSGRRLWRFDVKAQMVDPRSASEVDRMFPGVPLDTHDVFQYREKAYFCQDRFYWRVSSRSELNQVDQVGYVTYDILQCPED
Neutrophil elastase (Homo sapiens), sequence (P08246 whole entry): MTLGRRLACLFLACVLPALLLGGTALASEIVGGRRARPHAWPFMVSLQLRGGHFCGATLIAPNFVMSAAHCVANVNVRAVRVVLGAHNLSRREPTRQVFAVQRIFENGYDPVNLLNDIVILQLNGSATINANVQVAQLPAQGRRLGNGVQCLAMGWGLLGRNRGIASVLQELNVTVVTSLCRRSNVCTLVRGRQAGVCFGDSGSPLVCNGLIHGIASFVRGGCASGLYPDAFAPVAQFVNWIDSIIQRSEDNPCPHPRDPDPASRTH
Beta-1 adrenergic receptor (Homo sapiens), sequence (P08588 whole entry, looked up): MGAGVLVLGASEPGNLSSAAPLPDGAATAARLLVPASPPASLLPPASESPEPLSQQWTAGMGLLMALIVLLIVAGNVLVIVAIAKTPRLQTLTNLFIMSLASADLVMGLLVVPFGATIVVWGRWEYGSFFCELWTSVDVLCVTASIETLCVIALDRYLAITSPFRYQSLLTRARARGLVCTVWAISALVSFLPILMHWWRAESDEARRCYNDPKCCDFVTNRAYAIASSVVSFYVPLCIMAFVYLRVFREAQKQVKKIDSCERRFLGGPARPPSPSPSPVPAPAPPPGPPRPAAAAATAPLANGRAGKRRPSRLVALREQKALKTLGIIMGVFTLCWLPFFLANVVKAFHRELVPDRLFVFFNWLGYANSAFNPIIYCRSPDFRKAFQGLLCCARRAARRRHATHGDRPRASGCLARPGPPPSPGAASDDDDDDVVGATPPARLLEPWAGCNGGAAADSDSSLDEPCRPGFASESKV
Endothelin-1 receptor (Homo sapiens), sequence (P25101 whole entry): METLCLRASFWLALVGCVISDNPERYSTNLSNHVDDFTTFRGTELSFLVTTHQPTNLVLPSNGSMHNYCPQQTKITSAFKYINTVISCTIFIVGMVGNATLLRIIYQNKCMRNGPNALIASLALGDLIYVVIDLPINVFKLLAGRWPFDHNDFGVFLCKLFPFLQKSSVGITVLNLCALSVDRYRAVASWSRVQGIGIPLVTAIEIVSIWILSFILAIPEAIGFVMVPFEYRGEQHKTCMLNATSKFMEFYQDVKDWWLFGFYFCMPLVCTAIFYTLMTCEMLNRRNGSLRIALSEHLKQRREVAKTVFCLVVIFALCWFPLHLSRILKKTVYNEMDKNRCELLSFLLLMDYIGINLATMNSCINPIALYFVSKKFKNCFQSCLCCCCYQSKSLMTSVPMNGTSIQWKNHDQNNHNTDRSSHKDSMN
Neutrophil collagenase (Homo sapiens), sequence (P22894 101-467 limits assumed): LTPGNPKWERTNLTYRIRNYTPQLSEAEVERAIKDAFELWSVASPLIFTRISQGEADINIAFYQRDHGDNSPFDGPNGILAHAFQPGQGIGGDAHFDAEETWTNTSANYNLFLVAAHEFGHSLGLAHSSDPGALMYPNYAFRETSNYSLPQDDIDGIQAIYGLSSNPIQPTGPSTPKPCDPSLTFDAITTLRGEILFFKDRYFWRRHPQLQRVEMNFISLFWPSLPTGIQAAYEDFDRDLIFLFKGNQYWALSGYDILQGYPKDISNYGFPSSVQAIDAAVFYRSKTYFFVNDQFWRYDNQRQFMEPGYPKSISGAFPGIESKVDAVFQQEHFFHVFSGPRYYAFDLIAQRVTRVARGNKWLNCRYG

Compound: CC[C@H](CC(=O)O)n1c(=O)c2ncccc2n(Cc2cn(C)c3cc(C)cc(C)c23)c1=O [BI-1942]
- inhibition [1]: -6.54%
- residual activity [2]: 98%
- inhibition [3]: 52.9%
- residual activity [4]: 104%
- residual activity (Trypsin (Homo sapiens)): 108%
- inhibition [5]: 10.5%
- residual activity (Chymase (Homo sapiens)): -1%
- residual activity [6]: 90%
- inhibition [7]: 0.56%
- residual activity [8]: 101%
- residual activity [9]: 105%
- inhibition [10]: 4.96%
- residual activity [11]: 106%
- residual activity [12]: 106%
- inhibition [13]: 9.83%
- Ki ([14]; read-out: Ki): 4.95 µM
- Ki ([14]; read-out: pKi (converted)): 4.79 µM
- residual activity [15]: 99%
- inhibition [16]: 8.73%
- residual activity [17]: 109%
- residual activity [18]: 89%
- residual activity [19]: 101%
- inhibition [20]: 14.1%
- inhibition [21]: 5.71%
- residual activity [22]: 102%
- residual activity [23]: 98%
- inhibition [24]: 23.8%
- inhibition [25]: 0.23%
- inhibition [26]: 0.31%
- residual activity [27]: 124%
- residual activity [28]: 96%
- residual activity [29]: 99%
- inhibition [30]: 19.6%
- residual activity [31]: 86%
- residual activity (Caspase-8 (Homo sapiens)): 88%
- residual activity [32]: 100%
- inhibition [33]: 5.01%
- residual activity [34]: 111%
- residual activity [35]: 113%
- residual activity [36]: 107%
- residual activity [37]: 98%
- residual activity (Tryptase (Homo sapiens)): 102%
